Data reported in US20120190752A1, “EXO-S-MECAMYLAMINE METHOD, USE, AND COMPOUND FOR TREATMENT” (Targacept Inc., priority 2009, published 2012).

Test system: subjects with major depressive disorder (MDD) who were inadequate responders to citalopram
Test: HAMD-17 total score, Phase 2b trial of TC-5214 as add-on to citalopram
Format: in vivo, human
Excerpt: The Hamilton Rating Scale for Depression (HRSD), also known as the Hamilton Depression Rating Scale (HDRS) or abbreviated to HAM-D or HAMD, is a multiple choice questionnaire that clinicians may use to rate the severity of a patient's major depression (Hamilton 1967). The questionnaire rates the severity of symptoms observed in depression such as low mood, insomnia, agitation, anxiety and weight loss. The questionnaire is presently one of the most commonly used scales for rating depression in medical research. The clinician chooses the possible responses to each question by interviewing the patient and by observing the patient's symptoms. Each question has multiple possible responses which increase in severity. Although Hamilton's original scale had 17 questions, others later developed HRSD scales with different numbers of questions, the greatest of which is 29 (HRSD-29). Clinicians can use the HRSD in place of, or in conjunction with, the Montgomery-Åsberg Depression Rating Scale (MADRS), the Beck Depression Inventory (BDI), the Zung Self-Rating Depression Scale, the Wechsler Depression Rating Scale, the […] Depression Rating Scale, the Inventory of Depressive Symptomatology (IDS), the Quick Inventory of Depressive Symptomatology (QIDS), and other questionnaires. […] The results on all of the trial's secondary efficacy measures, including assessments of depression, irritability, disability, cognition, severity of illness and global improvement, were also statistically significant in favor of TC-5214 on an intent to treat basis. The Phase 2b trial of TC-5214 as an augmentation treatment for MDD was a two-phase trial conducted at 20 sites in India and three sites in the United States. In the first phase, 579 subjects with MDD received first-line treatment with citalopram hydrobromide for eight weeks, 20 mg daily for the first four weeks and 40 mg daily for the next four weeks. Citalopram, an approved treatment for MDD marketed in the United States as […]®, is from the drug class known as selective serotonin reuptake inhibitors. At the end of the eight weeks, subjects whose MADRS score had improved less than 50 percent and whose CGI-SI score was no lower than 4 were considered partial or non responders and randomized into the double blind second phase of the trial. In the double blind second phase, subjects continued their citalopram treatment and also received either add-on TC-5214 or add-on placebo for an additional eight weeks. The daily dosage of TC-5214 was initially 2 mg and could be increased at the discretion of the investigator to 4 mg and to 8 mg based on tolerability and therapeutic response. The primary outcome measure for the trial was mean change between TC-5214 and placebo from double blind baseline as measured by HAM-D at week 16. The intent to treat dataset included 265 subjects in the second phase. In more detail, a multi-center double-blind, randomized, placebo-controlled, parallel group, flexible dose titration study of TC-5214 as adjunctive therapy in subjects with major depressive disorder (MDD) who were inadequate responders to citalopram was conducted in centers in the US and India. The study consisted of a screening period, baseline/washout period, open-label phase, double-blind phase, and a follow-up visit. Subject participation in the study could continue for up to 16 weeks of treatment. Following a washout period of up to 28 days for other antidepressants, subjects with MDD and a MADRS total score >/=28 and a Clinical Global Impression-Severity (CGI-S) score >/=4 were enrolled on Day 1 into an open-label citalopram-only phase of the study. This phase lasted 8 weeks, with citalopram (CIT) dose increased from a once-daily dose of 20 mg (Day 1 through Week 4) to 40 mg (Week 4 through Week 8). A total of 579 subjects entered the open-label citalopram phase. […]

[1] = ITT and PP, at almost every assessment week, result in words
[2] = ITT, Double Blind Week 8 (Baseline), before TC-5214
[3] = ITT, Double Blind Week 18 (Follow-up)
[4] = ITT, Double Blind Week 18 LOCF (Follow-up)
[5] = ITT, Double Blind Week 18 LOCF (Follow-up), change from Week 16

SMILES: CNC1(C)C2CCC(C2)C1(C)C (stereo in doubt) [TC-5214, (S)—N,2,3,3-tetramethylnorbornan-2-amine]
- HAMD-17 total score change from baseline compared with placebo (ITT and PP populations, result in words): statistically significant decreases (improvements)
- HAMD responders (reduction from baseline ≧50%) proportion compared with placebo [1]: higher proportion of responders
- HAMD-17 remission proportion compared with placebo [1]: higher proportion of subjects in remission
- HAMD-17 total score, observed Mean [2]: 23.5
- HAMD-17 total score, observed Median [2]: 24.0
- HAMD-17 Remission (Score ≦7): Subjects with Remission (number) (ITT, Double Blind Week 9): 1
- HAMD-17 Remission (Score ≦7): Subjects with Remission (percentage) (ITT, Double Blind Week 9): (1%)
- HAMD-17 Remission (Score ≦7): Subjects without Remission (number) (ITT, Double Blind Week 9): 132
- HAMD-17 Remission (Score ≦7): Subjects without Remission (percentage) (ITT, Double Blind Week 9): (99%)
- HAMD-17 Remission (Score ≦10): Subjects with Remission (number) (ITT, Double Blind Week 9): 4
- HAMD-17 Remission (Score ≦10): Subjects with Remission (percentage) (ITT, Double Blind Week 9): (3%)
- HAMD-17 Remission (Score ≦10): Subjects without Remission (number) (ITT, Double Blind Week 9): 129
- HAMD-17 Remission (Score ≦10): Subjects without Remission (percentage) (ITT, Double Blind Week 9): (97%)
- HAMD-17 reduction from baseline ≧50%: Subjects with Response (number) (ITT, Double Blind Week 9): 4
- HAMD-17 reduction from baseline ≧50%: Subjects with Response (percentage) (ITT, Double Blind Week 9): (3%)
- HAMD-17 reduction from baseline ≧50%: Subjects without Response (number) (ITT, Double Blind Week 9): 129
- HAMD-17 reduction from baseline ≧50%: Subjects without Response (percentage) (ITT, Double Blind Week 9): (97%)
- HAMD-17 Remission (Score ≦7): Subjects with Remission (number) (ITT, Double Blind Week 10): 6
- HAMD-17 Remission (Score ≦7): Subjects with Remission (percentage) (ITT, Double Blind Week 10): (5%)
- HAMD-17 Remission (Score ≦7): Subjects without Remission (number) (ITT, Double Blind Week 10): 127
- HAMD-17 Remission (Score ≦7): Subjects without Remission (percentage) (ITT, Double Blind Week 10): (95%)
- HAMD-17 Remission (Score ≦10): Subjects with Remission (number) (ITT, Double Blind Week 10): 20
- HAMD-17 Remission (Score ≦10): Subjects with Remission (percentage) (ITT, Double Blind Week 10): (15%)
- HAMD-17 Remission (Score ≦10): Subjects without Remission (number) (ITT, Double Blind Week 10): 113
- HAMD-17 Remission (Score ≦10): Subjects without Remission (percentage) (ITT, Double Blind Week 10): (85%)
- HAMD-17 reduction from baseline ≧50%: Subjects with Response (number) (ITT, Double Blind Week 10): 23
- HAMD-17 reduction from baseline ≧50%: Subjects with Response (percentage) (ITT, Double Blind Week 10): (17%)
- HAMD-17 reduction from baseline ≧50%: Subjects without Response (number) (ITT, Double Blind Week 10): 110
- HAMD-17 reduction from baseline ≧50%: Subjects without Response (percentage) (ITT, Double Blind Week 10): (83%)
- HAMD-17 Remission (Score ≦7): Subjects with Remission (number) (ITT, Double Blind Week 12): 20
- HAMD-17 Remission (Score ≦7): Subjects with Remission (percentage) (ITT, Double Blind Week 12): (15%)
- HAMD-17 Remission (Score ≦7): Subjects without Remission (number) (ITT, Double Blind Week 12): 113
- HAMD-17 Remission (Score ≦7): Subjects without Remission (percentage) (ITT, Double Blind Week 12): (85%)
- HAMD-17 Remission (Score ≦10): Subjects with Remission (number) (ITT, Double Blind Week 12): 40
- HAMD-17 Remission (Score ≦10): Subjects with Remission (percentage) (ITT, Double Blind Week 12): (30%)
- HAMD-17 Remission (Score ≦10): Subjects without Remission (number) (ITT, Double Blind Week 12): 93
- HAMD-17 Remission (Score ≦10): Subjects without Remission (percentage) (ITT, Double Blind Week 12): (70%)
- HAMD-17 reduction from baseline ≧50%: Subjects with Response (number) (ITT, Double Blind Week 12): 45
- HAMD-17 reduction from baseline ≧50%: Subjects with Response (percentage) (ITT, Double Blind Week 12): (34%)
- HAMD-17 reduction from baseline ≧50%: Subjects without Response (number) (ITT, Double Blind Week 12): 88
- HAMD-17 reduction from baseline ≧50%: Subjects without Response (percentage) (ITT, Double Blind Week 12): (66%)
- HAMD-17 Remission (Score ≦7): Subjects with Remission (number) (ITT, Double Blind Week 14): 37
- HAMD-17 Remission (Score ≦7): Subjects with Remission (percentage) (ITT, Double Blind Week 14): (28%)
- HAMD-17 Remission (Score ≦7): Subjects without Remission (number) (ITT, Double Blind Week 14): 96
- HAMD-17 Remission (Score ≦7): Subjects without Remission (percentage) (ITT, Double Blind Week 14): (72%)
- HAMD-17 Remission (Score ≦10): Subjects with Remission (number) (ITT, Double Blind Week 14): 60
- HAMD-17 Remission (Score ≦10): Subjects with Remission (percentage) (ITT, Double Blind Week 14): (45%)
- HAMD-17 Remission (Score ≦10): Subjects without Remission (number) (ITT, Double Blind Week 14): 73
- HAMD-17 Remission (Score ≦10): Subjects without Remission (percentage) (ITT, Double Blind Week 14): (55%)
- HAMD-17 reduction from baseline ≧50%: Subjects with Response (number) (ITT, Double Blind Week 14): 72
- HAMD-17 reduction from baseline ≧50%: Subjects with Response (percentage) (ITT, Double Blind Week 14): (54%)
- HAMD-17 reduction from baseline ≧50%: Subjects without Response (number) (ITT, Double Blind Week 14): 61
- HAMD-17 reduction from baseline ≧50%: Subjects without Response (percentage) (ITT, Double Blind Week 14): (46%)
- HAMD-17 Remission (Score ≦7): Subjects with Remission (number) (ITT, Double Blind Week 16): 52
- HAMD-17 Remission (Score ≦7): Subjects with Remission (percentage) (ITT, Double Blind Week 16): (39%)
- HAMD-17 Remission (Score ≦7): Subjects without Remission (number) (ITT, Double Blind Week 16): 81
- HAMD-17 Remission (Score ≦7): Subjects without Remission (percentage) (ITT, Double Blind Week 16): (61%)
- HAMD-17 Remission (Score ≦10): Subjects with Remission (number) (ITT, Double Blind Week 16): 83
- HAMD-17 Remission (Score ≦10): Subjects with Remission (percentage) (ITT, Double Blind Week 16): (62%)
- HAMD-17 Remission (Score ≦10): Subjects without Remission (number) (ITT, Double Blind Week 16): 50
- HAMD-17 Remission (Score ≦10): Subjects without Remission (percentage) (ITT, Double Blind Week 16): (38%)
- HAMD-17 reduction from baseline ≧50%: Subjects with Response (number) (ITT, Double Blind Week 16): 90
- HAMD-17 reduction from baseline ≧50%: Subjects with Response (percentage) (ITT, Double Blind Week 16): (68%)
- HAMD-17 reduction from baseline ≧50%: Subjects without Response (number) (ITT, Double Blind Week 16): 43
- HAMD-17 reduction from baseline ≧50%: Subjects without Response (percentage) (ITT, Double Blind Week 16): (32%)
- HAMD-17 total score, observed Mean (ITT, Double Blind Week 16 LOCF): 9.8
- HAMD-17 total score, observed Median (ITT, Double Blind Week 16 LOCF): 8.0
- HAMD-17 Mean Difference between TC-5214 and Placebo (ITT, Double Blind Week 16 LOCF (change from Week 8)): 6.00
- HAMD-17 Remission (Score ≦7): Subjects with Remission (number) [3]: 60
- HAMD-17 Remission (Score ≦7): Subjects with Remission (percentage) [3]: (45%)
- HAMD-17 Remission (Score ≦7): Subjects without Remission (number) [3]: 73
- HAMD-17 Remission (Score ≦7): Subjects without Remission (percentage) [3]: (55%)
- HAMD-17 Remission (Score ≦10): Subjects with Remission (number) [3]: 85
- HAMD-17 Remission (Score ≦10): Subjects with Remission (percentage) [3]: (64%)
- HAMD-17 Remission (Score ≦10): Subjects without Remission (number) [3]: 48
- HAMD-17 Remission (Score ≦10): Subjects without Remission (percentage) [3]: (36%)
- HAMD-17 reduction from baseline ≧50%: Subjects with Response (number) [3]: 89
- HAMD-17 reduction from baseline ≧50%: Subjects with Response (percentage) [3]: (67%)
- HAMD-17 reduction from baseline ≧50%: Subjects without Response (number) [3]: 44
- HAMD-17 reduction from baseline ≧50%: Subjects without Response (percentage) [3]: (33%)
- HAMD-17 total score, observed Mean [4]: 9.4
- HAMD-17 total score, observed Median [4]: 8.0
- HAMD-17 Adjusted Mean change [5]: −0.70
- HAMD-17 Mean Difference between TC-5214 and Placebo [5]: −0.13
- HAMD-17 Difference vs Placebo + CIT (ITT, Week 8 to Week 16 LOCF): −6.0
- HAMD-17 total (raw) score change from baseline compared with placebo by week (ITT, Weeks 10, 12, 14, and 16, result in words): statistically significant decreases (improvements)
